Series [1] concerns HL-60 cells. Put plainly: IC50 determination: incorporation of 13C-acetate into cholesterol in HL-60 cells (GC-MS). Particulars: Homo sapiens, read-out: HL60 assay activity. The format is cell-based. The protocol: Two test concentrations (1 μM and 50 μM) were used. The compounds were dissolved in ethanol or DMSO and the testing-stock solutions are prepared taking a final dilution of 1:100 into account. Ultimately 10 μL of testing stock solution were added to 990 μL of lipid-free medium containing 1% lipoprotein deficient serum (LPDS) without antibiotics. HL-60 cells (1×10^6 cells) were incubated in 24-well plates in 1.0 mL of medium consisting of 990 μL of lipid free medium with 1% LPDS and 10 μL of respective inhibitor solution.
For IC50 determination, the incorporation of labelled acetate in the target molecule cholesterol is being assessed and the protocol is altered in the following manner: to each well 10 μL of a sterile sodium 2-^13C-acetate solution (6.25 mg/mL) were added before the addition of the inhibitor solution, leading to a final ^13C-acetate concentration of 62.5 μg/mL. After saponification 3×25 μL aliquots are taken for protein determination applying the Bradford reagent. After work-up and silylation, GC-MS analysis allows the quantification ^13C incorporation into cholesterol according to the below given formula. The percentage inhibition (see formula) relative to untreated control samples (0% inhibition) was plotted against the logarithmic inhibitor concentration using Graph Pad Prism 4 (or higher). A bottom level constant equal to 0 is set as constraint using a sigmoidal dose-response model with a various slope. All samples are normalised to their protein. For each concentration the inhibitory percentage is determined in triplicate.
The above formula is the calculation formula for the percentage inhibition, where AS represents the area sample; AI.S.C. represents the area internal standard control; PCC represents the protein content control; AC represents the area control; AI.S.S. represents the area internal standard sample; and PCs represents the protein content sample.

For series [2], the system named is male E3L.CETP mice. Kind of series: Rescue experiment: E3L.CETP mice on HFCD for 10 weeks, then SH42 for additional 8 weeks. The class given is in vivo. The text has this:
Hemizygous APOE*3-Leiden (E3L) mice were crossbred with homozygous human cholesteryl ester transfer protein (CETP) transgenic mice to generate heterozygous E3L.CETP mice on a C57BL/6J background [M. Westerterp et al., “Cholesteryl ester transfer protein decreases high-density lipoprotein and severely aggravates atherosclerosis in APOE*3-Leiden mice”; Arterioscler Thromb Vasc Biol 26, 2552-2559 (2006)]. Because of phenotypical heterogeneity of E3L. CETP mice, non-responder mice were identified by 4-hour fasting plasma lipid levels, i.e., total cholesterol levels <2 mM and triglyceride levels <2 mM, and excluded before special diet treatment. LXRα-deficient mice (also on C57BL/6J background), generated by Deltagen using gene-targeting methods as described [T. Plosch et al., “Abcg5/Abcg8-independent pathways contribute to hepatobiliary cholesterol secretion in mice”; Am J Physiol Gastrointest Liver Physiol, 291, G414-423 (2006)(33)] were provided by Tularik (San Francisco, CA, US). Mice were group-housed in individually ventilated cages in standard conditions at room temperature (22° C.) with 40±5% relative humidity and a 12-h light/dark (7 am lights on; 7 pm lights off) cycle. All animals received humane care according to the criteria outlined in the NIH “Guide for the Care and Use of Laboratory Animals”. All animal procedures were performed in conformance with the guidelines from Directive 2010/63/EU of the European Parliament on the protection of animals used for scientific purposes.
At the age of 10-12 weeks, male E3L.CETP mice and LXRα-deficient mice were fed a high fat high cholesterol diet (HFCD; Altromin, Germany) containing 60% (energy) fat and 1% (wt/wt) cholesterol, and were randomized into two groups treated with either the DHCR24 inhibitor compound of Example 11 [also referred to herein as SH42] (0.5 mg·mouse^−1) or vehicle (saline containing 3.3% ethanol and 3.3% Cremophor EL) 3 times per week by intraperitoneal injection. E3L.CETP mice were treated for 4 weeks (n=6 mice per group) and 8 weeks (n=8 mice per group) to evaluate effects on hepatic immune cells via flow cytometry analysis and hepatic steatosis via quantitative lipidomic analysis, respectively. LXRα-deficient mice were treated with either SH42 (n=11 mice) or vehicle (n=10 mice) for 4 weeks to evaluate effects on hepatic steatosis and immune cells. In a rescue experiment, male E3L.CETP mice were fed with HFCD for 10 weeks first and cotreated with SH42 (0.5 mg mouse^−1) or vehicle (saline containing 3.3% ethanol and 3.3% Cremophor EL) 3 times per week by intraperitoneal injection for additional 8 weeks.
Body weight was measured weekly. Body composition (i.e. fat body and lean body mass; EchoMRI-100; EchoMRI, Houston, TX, USA) was evaluated before and after intervention. Food intake was determined during the treatment period.

The subject of series [3] is male E3L.CETP mice. Kind of series: E3L.CETP mice on HFCD, SH42 for 4 weeks, flow cytometry of hepatic immune cells. The format is in vivo. The text has this:
Hemizygous APOE*3-Leiden […]) mice were crossbred with homozygous human cholesteryl ester transfer protein (CETP) transgenic mice to generate heterozygous E3L.CETP mice on a C57BL/6J background [[…] al., “Cholesteryl ester transfer protein decreases high-density lipoprotein and severely aggravates atherosclerosis in APOE*3-Leiden mice”; Arterioscler Thromb Vasc Biol 26, 2552-2559 (2006)]. Because of phenotypical heterogeneity of E3L. CETP mice, non-responder mice were identified by 4-hour fasting plasma lipid levels, i.e., total cholesterol levels <2 mM and triglyceride levels <2 mM, and excluded before special diet treatment. LXRα-deficient mice (also on C57BL/6J background), generated by Deltagen using gene-targeting methods as described [T. Plosch et al., “Abcg5/Abcg8-independent pathways contribute to hepatobiliary cholesterol secretion in mice”; Am J Physiol Gastrointest Liver Physiol, 291, […]-423 (2006)(33)] were provided by Tularik (San Francisco, CA, US). […] All animals received humane care according to the criteria outlined in the NIH “Guide for the Care and Use of Laboratory Animals”. All animal procedures were performed in conformance with the guidelines from Directive 2010/63/EU of the European Parliament on the protection of animals used for scientific purposes. At the age of 10-12 weeks, male E3L.CETP mice and LXRα-deficient mice were fed a high fat high cholesterol diet (HFCD; […] LXRα-deficient mice were treated with either SH42 (n=11 mice) or vehicle (n=10 mice) for 4 weeks to evaluate effects on hepatic steatosis and immune cells. In a rescue experiment, male E3L.CETP mice were fed with HFCD for 10 weeks first and cotreated with SH42 (0.5 mg mouse^-1) or vehicle (saline containing 3.3% ethanol and 3.3% Cremophor EL) 3 times per week by intraperitoneal injection for additional 8 weeks.
A general note: A flow cytometer gives signals particle by particle.

The subject of series [4] is male E3L.CETP mice. Put plainly: E3L.CETP mice on high fat high cholesterol diet, SH42 for 8 weeks (hepatic steatosis, lipidomics, immunohistochemistry, plasma lipids). The format is in vivo.
The mark [5] stands for this setting: HL-60 cells, 24 h, 13C-acetate incorporation into cholesterol.
Where [6] appears, read: 10 weeks HFCD, then 8 weeks treatment.
Setting [7] is: 8 weeks, absolute concentration.
[8] abbreviates: after 8 weeks of treatment, vs control group.

Read-outs that look alike come from different tables or passages of the source. A value given as a limit tells only on which side of the number the result lay.

Experimental findings from patent US20250312355A1, “DHCR24 INHIBITORY COMPOUNDS” (ACADEMISCH ZIEKENHUIS LEIDEN (H.O.D.N. LUMC), priority 2022, published 2025) are described below.

`C[C@@H](CO)[C@H]1CC[C@H]2C3=CCC4C[C@@H](O)CC[C@]4(C)[C@H]3CC[C@]12C` (stereo partly drawn) [Example 30, (3S,20R)-20-(Hydroxymethyl)-pregn-7-en-3-ol]: the IC50 in series [1] (HL-60, 24 h) was determined as 300 nM.
For the compound `C[C@H](CO)[C@H]1CC[C@H]2C3=CCC4C[C@H](O)CC[C@]4(C)[C@H]3CC[C@]12C` (stereo partly drawn) [Example 31, (3R,20S)-20-(Hydroxymethyl)-pregn-7-en-3-ol], the IC50 in series [1] (HL-60, 24 h) is 280 nM.
`C[C@H](CO)C1CCC2c3ccc4c(c3CC[C@@]21C)CC[C@H](O)C4` (stereo partly drawn) [Example 33, (3S,20S)-20-(Hydroxymethyl)-pregn-5,7,9-trien-3-ol]: the IC50 in series [1] (setting [5]) was 175 nM.
Take `CC(=O)O[C@H]1CC[C@@]2(C)C(CC=C3C2CC[C@@]2(C)C3CCC2[C@H](C)COC(=O)CN(C)C)C1` (some centres unmarked) [Example 25]: the IC50 in series [1] (HL-60, 24 h) came to 6 nM.
On to `C=C(F)C(=O)OC[C@@H](C)C1CCC2c3ccc4c(c3CC[C@@]21C)CC[C@H](OC(C)=O)C4` (stereo partly drawn) [Example 35, (3S,20S)-20-[(2-Fluoroacryloyloxy)methyl]-pregn-5,7,9-trien-3-yl Acetate], for which the IC50 in series [1] (setting [5]) amounted to 130 nM.
Consider `CC(=O)O[C@H]1CC[C@@]2(C)C(CC=C3[C@@H]4CC[C@H]([C@H](C)CCOC=O)[C@@]4(C)CC[C@@H]32)C1` (stereo partly drawn) [Example 34, (3S,20R)-20-(2-Formyloxyethyl)-pregn-7-en-3-yl Acetate], for which, in series [1] (setting [5]), the IC50 was 1000 nM.
On to `C[C@H](CSSc1ccccn1)C1CCC2C3=CCC4C[C@@H](O)CC[C@]4(C)C3CC[C@@]21C` (some centres unmarked) [Example 5], for which, in series [1] (setting [5]), the IC50 came out at 417 nM.
For the compound `CC(=O)O[C@H]1CC[C@@]2(C)C(CC=C3C2CC[C@@]2(C)C3CCC2[C@H](C)COC=O)C1` (some centres unmarked) [Example 11], in series [2] (setting [6]), the body composition result is reported as “did not significantly influence”; the “collagen content (liver fibrosis), change” value was −50%; the “hepatic crown-like structures, change” value is on record as −89%; the hepatic steatosis result is “No difference”. Besides, in series [2] (setting [6]), the “increase in plasma desmosterol levels” value is more than 400 fold; the liver weight result is “No difference”; the “plasma alanine transaminase (ALT), change” value was −42%; the total body weight entry is recorded as “did not significantly influence”. Besides, the F4/80 positive area entry in series [2] (mouse, in vivo) is on record as “without significant influence”. In series [3], the circulating neutrophils entry was “without affecting”; the “hepatic neutrophils, change” value is listed as −50%; the “monocytes in liver, change” value is listed as −79%. Further, in series [3] (flow cytometry), the “MHCII+/CD11c+ activated KCs” value is recorded as “did not significantly reduce”; the “MHCII−/CD11c− resting KCs, change” value was “+21%”; the “total Kupffer cells (KCs), change” value is recorded as “+44%”. Further, the “total hepatic leukocytes, change” value in series [3] (flow cytometry, p=0.09) is on record as −37%. The “monocytes in blood, change” value in series [3] (p=0.06) is given as −43%. The food intake result in series [4] (0.5 mg/mouse i.p. 3 times per week, 8 weeks, vs vehicle) is on record as “did not affect”. For the same compound, the “HFCD-induced body weight gain” value in series [4] (0.5 mg/mouse i.p. 3 times per week, vs control group) was “temporarily preventing”. Also, in series [4] (8 weeks), the fasting plasma glucose entry was “did not affect”; the fasting plasma insulin result is on record as “did not affect”; the “homeostatic Model Assessment for Insulin Resistance (HOMA-IR) scores” value is given as “did not affect”; the “weight of various tissues (liver, white adipose tissue, kidney, heart, lung, spleen, brown adipose tissue)” value is “unchanged”. In series [4] (setting [7]), the “plasma levels of FFA, change” value is reported as −16%; the “plasma levels of total DAG” value is “did not affect”; the “plasma levels of total TAG” value is listed as “did not affect”. Moreover, in series [4] (8 weeks, absolute concentration, p=0.08), the “plasma levels of CE, change” value was −24%. In series [4] (8 weeks, immunohistochemistry), the “hepatic F4/80 content, change” value is listed as −29% and the “number of hepatic crown-like structures, change” value is on record as −79%. The “hepatic free fatty acids (FFA), change” value in series [4] (8 weeks, liver) is recorded as −16%. Also, in series [4] (8 weeks, liver lipidomics), the “other liver lipid classes, including CER, PC, PE and SM (relative)” value is reported as “relative increase”; the “relative reduction of DAG in liver lipid class composition” value is on record as −22%; the “relative reduction of TAG in liver lipid class composition” value is −21%. For the same compound, the “increase of hepatic desmosterol levels” value in series [4] (8 weeks, liver, vs vehicle) was 10 fold. Also, in series [4] (8 weeks, plasma), the “circulating CE (relative, plasma lipidome)” value was “relatively decreased”; the “lactosylceramides (LCER), phosphatidylcholine (PC) and phosphatidylethanolamine (PE) (relative, plasma lipidome)” value was “relatively increasing”. Further, in series [4] (8 weeks, vs control treatment), the “hepatic steatosis score (HE staining), change” value is on record as −58% and the “liver lipid area, change” value is reported as −35%. In series [4] (setting [8]), the “body composition (lean body mass and fat body mass)” value is “comparable to that of the control group”; the body weight result is “comparable to that of the control group”. Moreover, in series [4] (plasma, from undetectable levels (<0.5 μg·mL^−1)), the plasma desmosterol levels was 3.1 ± 0.4 µg/mL.
Consider `C=C(F)C(=O)N(C)C[C@@H](C)[C@H]1CC[C@H]2C3=CCC4C[C@@H](OC(C)=O)CC[C@]4(C)[C@H]3CC[C@]12C` (stereo partly drawn) [Example 37, (3S,20S)-20-[(2-Fluoro-N-methylacrylamido)methyl]-pregn-7-en-3-yl Acetate], for which the IC50 in series [1] (setting [5]) was 110 nM.
For `C[C@H](CO)C1CCC2C3CC=C4C[C@@H](O)CC[C@]4(C)C3CC[C@@]21C` (some centres unmarked) [Example 29], the IC50 in series [1] (HL-60, 24 h) stood at 3 nM.
